Test results: patent US10377773B2, “Isothiazolopyrimidinones, pyrazolopyrimidinones, and pyrrolopyrimidinones as ubiquitin-specific protease 7 inhibitors” (FORMA Therapeutics, Inc., priority 2015, dated 2019)

Molecular target: T1, USP7 (Homo sapiens, UniProt Q93009)
T1 construct: USP7, construct USP7 (208-1102) 6*His, Viva Biotech; initiator Met (N); TEV site (C); 6*His (C); purchased Viva Biotech
Assay: USP7 Assay A and B (Ubiquitin-Rhodamine 110 assay)
Type: biochemical
Settings: Ub-Rh110 substrate 25 nM, read-out: USP7_IC50
Method: Each assay was performed in a final volume of 15 μL in assay buffer containing 20 mM Tris-HCl (pH 8.0, (1M Tris-HCl, pH 8.0 solution; Corning 46-031-CM)), 1 mM GSH (L-Glutathione reduced; Sigma #G4251), 0.03% BGG (0.22 μM filtered, Sigma, #G7516-25G), and 0.01% Triton X-100 (Sigma, #T9284-10L). Nanoliter quantities of either an 8-point or 10-point, 3-fold serial dilution in DMSO was pre-dispensed into assay plates (Perkin Elmer, ProxiPlate-384 F Plus, #6008269) for a final test concentration range of either 25 μM to 11 nM or 25 μM to 1.3 nM, respectively. The final concentration of the enzyme (USP7, construct USP7 (208-1102) 6*His, Viva Biotech) in the assay was 62.5 pM. Final substrate (Ub-Rh110; Ubiquitin-Rhodamine 110, R&D Systems #U-555) concentration was 25 nM with [Ub-Rh110]<<Km. 5 μL of 2× enzyme was added to the assay plates (pre-stamped with compound) and preincubated with USP7 for 30 min. 5 μL of 2×Ub-Rh110 was then added to assay plates. Plates were incubated stacked for 20 min at room temperature before 5 μL of stop solution (final concentration of 10 mM citric acid in assay buffer (Sigma, #251275-500G)). Fluorescence was read on the Envision (Excitation at 485 nm and Emission at 535 nm; Perkin Elmer) or on the PheraSTAR (Excitation at 485 nm and Emission at 535 nm; BMG Labtech).
Each assay was performed in a final volume of 20 μL in assay buffer containing 20 mM Tris-HCl (pH 8.0, (1M Tris-HCl, pH 8.0 solution; Corning 46-031-CM)), 2 mM CaCl2 (1M calcium chloride solution; Sigma #21114), 1 mM GSH (L-Glutathione reduced; Sigma #G4251), 0.01% Prionex (0.22 μM filtered, Sigma #G-0411), and 0.01% Triton X-100. Stock compound solutions were stored at −20° C. as 10 mM in DMSO. Up to 1 month prior to the assay, 2 mM test compounds were pre-dispensed into assay plates (Black, low volume; Corning #3820) and frozen at −20° C. Prestamped assay plates were allowed to warm to room temperature on the day of the assay. For the screen, 100 nL of 2 mM was pre-dispensed for a final screening concentration of 10 μM (DMSO(fc)=0.5%). For follow-up studies, 250 nL of an 8-point, 3-fold serial dilution in DMSO was pre-dispensed into assay plates for a final test concentration of 25 μM-11 nM (1.25c % DMSO final concentration). Unless otherwise indicated, all follow-up assays were run on triplecate plates. Enzyme (USP7, construct Met (208-1102)-TEV-6*His; Viva Q93009-1) concentration and incubation times were optimized for the maximal signal-to-background while maintaining initial velocity conditions at a fixed substrate concentration. The final concentration of the enzyme in the assay was either 75 pM or 250 pM. Final substrate (Ub-Rh110; Ubiquitin-Rhodamine 110, R&D Systems (biotechne)#U-555) concentration was 25 nM with [Ub-Rh110]<<Km. Compounds were either not preincubated or preincubated with USP7 between 30 to 120 min prior to the addition of 10 μL of 2×Ub-Rh110 to compound plates. Plates were incubated stacked for either 23 or 45 min at room temperature before fluorescence was read on the Envision (Excitation at 485 nm and Emission at 535 nm; Perkin Elmer) or on the PheraSTAR (Excitation at 485 nm and Emission at 535 nm; BMG Labtech).
Data from USP7 Assays A and B were reported as percent inhibition (inh) compared with control wells based on the following equation: % inh=1−((FLU−AveLow)/(AveHigh−AveLow)) where FLU=measured Fluorescence, AveLow=average Fluorescence of no enzyme control (n=16), and AveHigh=average Fluorescence of DMSO control (n=16). IC50 values were determined by curve fitting of the standard 4 parameter logistic fitting algorithm included in the Activity Base software package: IDBS XE Designer Model205. Data was fitted using the Levenburg Marquardt algorithm.

T1 sequence (Q93009 208-1102): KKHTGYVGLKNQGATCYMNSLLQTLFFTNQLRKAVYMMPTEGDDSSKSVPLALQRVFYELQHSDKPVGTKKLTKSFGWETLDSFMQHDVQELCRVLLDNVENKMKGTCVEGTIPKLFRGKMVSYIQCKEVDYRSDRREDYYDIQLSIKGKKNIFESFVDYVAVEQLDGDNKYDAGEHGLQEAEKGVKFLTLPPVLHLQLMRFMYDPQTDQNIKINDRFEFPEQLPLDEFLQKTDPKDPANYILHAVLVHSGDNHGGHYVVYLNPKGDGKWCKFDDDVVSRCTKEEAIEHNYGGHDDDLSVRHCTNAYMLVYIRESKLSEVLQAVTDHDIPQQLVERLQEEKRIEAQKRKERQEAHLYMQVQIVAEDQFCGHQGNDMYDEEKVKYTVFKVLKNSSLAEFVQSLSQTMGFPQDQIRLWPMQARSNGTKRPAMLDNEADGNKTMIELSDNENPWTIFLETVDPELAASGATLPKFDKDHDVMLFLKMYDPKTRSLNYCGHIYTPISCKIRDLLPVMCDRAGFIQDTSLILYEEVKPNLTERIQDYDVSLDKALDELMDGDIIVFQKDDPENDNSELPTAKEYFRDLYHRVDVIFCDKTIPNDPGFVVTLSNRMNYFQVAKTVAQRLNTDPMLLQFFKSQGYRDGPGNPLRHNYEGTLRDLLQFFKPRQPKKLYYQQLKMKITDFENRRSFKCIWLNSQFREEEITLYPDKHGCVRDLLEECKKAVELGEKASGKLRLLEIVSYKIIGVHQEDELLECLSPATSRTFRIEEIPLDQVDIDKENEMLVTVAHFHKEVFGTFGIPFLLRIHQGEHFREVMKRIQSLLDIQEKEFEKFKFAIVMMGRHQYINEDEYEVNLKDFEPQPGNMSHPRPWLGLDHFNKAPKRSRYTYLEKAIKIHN

| Compound | IC50 |
| --- | --- |
| O=C(c1ccc(F)cc1)N1CCC(O)(Cn2cnc3c(-c4ccc(CO)cc4)nsc3c2=O)CC1 [Compound I-23, 6-{[1-(4-fluorobenzoyl)-4-hydroxypiperidin-4-yl]methyl}-3-[4-(hydroxymethyl)phenyl]-6H,7H-[1,2]thiazolo[4,5-d]pyrimidin-7-one] | 1 to 10 µM |
| COc1ccc(C(=O)N2CCC(O)(Cn3cnc4c(-c5ccc(CO)cc5)nsc4c3=O)CC2)cc1 [Compound I-24, 6-{[4-hydroxy-1-(4-methoxybenzoyl)piperidin-4-yl]methyl}-3-[4-(hydroxymethyl)phenyl]-6H,7H-[1,2]thiazolo[4,5-d]pyrimidin-7-one] | 1 to 10 µM |
| O=C(CCC(F)(F)F)N1CCC(O)(Cn2cnc3c(-c4ccc(F)cc4)nsc3c2=O)CC1 [Compound I-25, 3-(4-fluorophenyl)-6-{[4-hydroxy-1-(4,4,4-trifluorobutanoyl)piperidin-4-yl]methyl}-6H,7H-[1,2]thiazolo[4,5-d]pyrimidin-7-one] | > 10 µM |
| CN(C)C(=O)N1CCC(O)(Cn2cnc3c(-c4ccc(NCCN5CCCCC5)cc4)nsc3c2=O)CC1 [Compound I-26, 4-hydroxy-N,N-dimethyl-4-{[7-oxo-3-(4-{[2-(piperidin-1-yl)ethyl]amino}phenyl)-6H,7H-[1,2]thiazolo[4,5-d]pyrimidin-6-yl]methyl}piperidine-1-carboxamide] | 1 to 10 µM |
| O=C1NCCN1CCOc1cccc(-c2nsc3c(=O)n(CC4(O)CCN(C(=O)C5CC5)CC4)cnc23)c1 [Compound I-27, 1-[2-(3-{6-[(1-cyclopropanecarbonyl-4-hydroxypiperidin-4-yl)methyl]-7-oxo-6H,7H-[1,2]thiazolo[4,5-d]pyrimidin-3-yl}phenoxy)ethyl]imidazolidin-2-one] | 1 to 10 µM |
| C[C@H](CC(=O)N1CCC(O)(Cn2cnc3cc[nH]c3c2=O)CC1)c1ccccc1 [Compound I-28, 3-({4-hydroxy-1-[(3R)-3-phenylbutanoyl]piperidin-4-yl}methyl)-3H,4H,5H-pyrrolo[3,2-d]pyrimidin-4-one] | < 0.5 µM |
| O=C(c1ccccc1)N1CCC(O)(Cn2cnc3c(-c4ccccc4)n[nH]c3c2=O)CC1 [Compound I-29, 6-[(1-benzoyl-4-hydroxypiperidin-4-yl)methyl]-3-phenyl-1H,6H,7H-pyrazolo[4,3-d]pyrimidin-7-one] | 0.5 to 1 µM |
| O=C(c1ccc(F)cc1)N1CCC(O)(Cn2cnc3c(-c4ccc(F)cc4)nsc3c2=O)CC1 [Compound I-30, 6-{[1-(4-fluorobenzoyl)-4-hydroxypiperidin-4-yl]methyl}-3-(4-fluorophenyl)-6H,7H-[1,2]thiazolo[4,5-d]pyrimidin-7-one] | > 10 µM |
| COc1ccc(C(=O)N2CCC(O)(Cn3cnc4c(-c5ccc(OC)cc5)nsc4c3=O)CC2)cc1 [Compound I-31, 6-{[4-hydroxy-1-(4-methoxybenzoyl)piperidin-4-yl]methyl}-3-(4-methoxyphenyl)-6H,7H-[1,2]thiazolo[4,5-d]pyrimidin-7-one] | 1 to 10 µM |
